From US20060178394A1, “Pharmaceutical compositions comprising apomorphine for pulmonary inhalation” (priority 2003, published 2006)
Entries after “also recorded” stand apart in the source; their conditions may differ. Where a name gives a salt, the structure may show the parent alone. Read-outs that look alike come from different tables or passages of the source.

Legend:
[1] = Drug retention and degradation in PE and PVC blisters
[2] = test system: patients (quality of erection in response to VSS); assay: Clinical study (Example 14): erection response to visual sexual stimulation after DPI inhalation; assay type: in vivo, human; settings: for Number of patients with quality grade 0, No effect / Number of patients with quality grade 1, Some tumescence, no rigidity / Number of patients with quality grade 2, Some tumescence and rigidity / Number of patients with quality grade 3, Partial erection / Number of patients with quality grade 4, Full erection: ITT; for Effective? / Responding (subjects with grade 3 or 4 erection) / Response rate: ITT population; for Duration, Mean: 60 min test period
Experimental: During each treatment, a patient was administered the given dose and was left alone to watch an hour of visual sexual stimulation (VSS). […] After 60 minutes, the patient's were asked to rate the quality and duration of their response to VSS. In this regard, the quality of response is defined as one of […]: 0: no effect; 1: some tumescence, no rigidity; 2: some tumescence, some rigidity, but not suitable for penetration; 3: rigidity and tumescence that would enable penetration but is not complete erection; 4: complete erection.
This study was conducted in a double blind fashion, where both the healthcare professional administering the treatment and the patient were not informed as to the actual dose being administered. The patients who participated in this study were randomised.
The primary measure of efficacy, as defined in the protocol, was the proportion of subjects reporting a grade 3 or 4 erection, using general criteria defined in the International Index of Erectile Function (IIEF). Grade 3 and 4 erections are regarded as “sufficient for successful intercourse”.

[3] = Phase I study: plasma pharmacokinetics of single inhaled doses (Example 15); assay type: in vivo, human; settings: for Tmax: median values; for Cmax: healthy male volunteers
Experimental: A phase I, double blind, randomised, placebo controlled study was conducted examining the safety, tolerability and pharmacokinetics of single 600 μg, 900 μg and 1200 μg doses in 16 healthy male volunteers. No evaluation for efficacy was conducted during the clinical study.
Pharmacokinetic plasma sampling was conducted pre-dose and at the following intervals post dose administration: 1 minute, 3 minutes, 5 minutes, 10 minutes, 15 minutes, 30 minutes, 45 minutes, 1 hour, 1.5 hours, 2 hours, 4 hours, 8 hours, 12 hours and 24 hours.
The following pharmacokinetic parameters were derived from the plasma apomorphine concentrations by non-compartmental analysis.
It should be noted that the tmax is represented as median values.

[4] = intranasal delivery, clinical setting; Nastech studies; cited from earlier work
[5] = Adverse event monitoring in the clinical study of Example 14; assay type: in vivo, human; settings: for All adverse events: subjects with AE, %: safety population
From the text: Adverse events were monitored during each dosing period. The proportion of patients experiencing one or more adverse events was similar in all four treatment groups. No serious adverse events were observed and no adverse event led to the premature discontinuation of any subject. All adverse events were mild or moderate in severity and occurred in a small percentage of the groups treated. Table 9 is a summary of all treatment related adverse events, and Table 10 breaks treatment-related adverse events down by body system.

[6] = Blood analysis 70 minutes after inhalation (Example 14); assay type: in vivo; settings: human, inhaled, 34 patients
Experimental: For each patient, blood samples were taken 70 minutes after inhalation. The blood samples were analysed, and the blood levels for 400 and 800 microgram doses of apomorphine for each of the 34 patients that completed the test are set forth in Table 11 in nanograms per millilitre. It should be appreciated from the data discussed in Example 15 below that these blood samples were actually taken long after the plasma concentration peak.

[7] = Solubility of apomorphine HCl in HFA propellant systems (solution pMDI); assay type: physicochemical
Experimental: However, conventional solution pMDI techniques are not believed to be appropriate for the delivery of apomorphine or its pharmaceutically acceptable salts with HFA propellants. Specifically, apomorphine base is too unstable to be formulated using current approaches and apomorphine salts are too polar to be formulated as solutions in HFA propellants. […] Even with such a system, a solution concentration of <25 μg/dose is achieved, which is well below the effective doses described above in connection with Dry Powder Inhalers.

[8] = 200 μg inhaled, grade 3 and 4 responders
[9] = 400 μg inhaled, listed as apomorphine HCl, hydrochloride
[10] = 400 μg inhaled, grade 3 and 4 responders
[11] = 800 μg inhaled, listed as apomorphine HCl, hydrochloride
[12] = male, human, plasma, inhaled or intranasal, 600 ug, 600 μg single inhaled dose, mean ± standard error
[13] = male, human, plasma, inhaled or intranasal, 900 ug, 900 μg single inhaled dose, mean ± standard error
[14] = male, human, plasma, inhaled or intranasal, 1200 ug, 1200 μg single inhaled dose, mean ± standard error

CN1CCc2cccc3c2[C@H]1Cc1ccc(O)c(O)c1-3 [Apomorphine HCl, apomorphine hydrochloride]
Mean drug retention, PE blisters ([1]; DUSA): 43.6 µg | Mean drug retention, PVC blisters ([1]; DUSA): 12.9 µg | Mean drug retention, PE blisters ([1]; Initial stability): 44.7 µg | Mean drug retention, PVC blisters ([1]; Initial stability): 13.9 µg | Chemical stability in the presence of polyethylene (PE blisters) ([1]; initial stability data, related substance peaks after 1 month, hydrochloride): chemically degrades; also recorded: degradation of the formulated product takes place | Duration ([2]; 200 μg inhaled): 24 min | Duration, Max ([2]; 200 μg inhaled): 47 min | Duration, Median ([2]; 200 μg inhaled): 31.5 min | Onset of an erection in one patient ([2]; 200 μg inhaled, FIG. 12): about 40 minutes | Number of patients with quality grade 0, No effect ([2]; 200 μg inhaled): 11 | Number of patients with quality grade 1, Some tumescence, no rigidity ([2]; 200 μg inhaled): 10 | Number of patients with quality grade 2, Some tumescence and rigidity ([2]; 200 μg inhaled): 6 | Number of patients with quality grade 3, Partial erection ([2]; 200 μg inhaled): 6 | Number of patients with quality grade 4, Full erection ([2]; 200 μg inhaled): 2 | Effective? ([2]; 200 μg inhaled): No | Responding (subjects with grade 3 or 4 erection) ([2]; 200 μg inhaled, 35 evaluated): 8 | Response rate ([2]; 200 μg inhaled, hydrochloride): 22.9% | Duration, Mean ([2]; 200 μg inhaled, N 8): 33.3 min | Onset, Max [2, 8]: 20 min post dose | Onset, Min [2, 8]: 8 min post dose | Onset, Mean ([2]; 200 μg inhaled, grade 3 and 4 responders, N 8): 13 min post dose | Duration ([2]; 400 μg inhaled): 4 min | Duration, Max ([2]; 400 μg inhaled): 54 min | Duration, Median ([2]; 400 μg inhaled): 38 min | Onset of an erection in one patient ([2]; 400 μg inhaled, FIG. 13): about 3 minutes | Number of patients with quality grade 0, No effect ([2]; 400 μg inhaled): 8 | Number of patients with quality grade 1, Some tumescence, no rigidity ([2]; 400 μg inhaled): 6 | Number of patients with quality grade 2, Some tumescence and rigidity ([2]; 400 μg inhaled): 3 | Number of patients with quality grade 3, Partial erection ([2]; 400 μg inhaled): 8 | Number of patients with quality grade 4, Full erection ([2]; 400 μg inhaled): 8 | Responding (subjects with grade 3 or 4 erection) ([2]; 400 μg inhaled, 33 evaluated): 16 | Effective? ([2]; 400 μg inhaled, listed as apomorphine HCL, hydrochloride): effective | Effective? [2, 9]: effective and Yes | Response rate [2, 9]: 48.5% | Duration, Mean ([2]; 400 μg inhaled, N 16): 31.1 min | Onset, Max [2, 10]: 28 min post dose | Onset, Median [2, 10]: 8 min post dose | Onset, Mean ([2]; 400 μg inhaled, grade 3 and 4 responders, N 16): 11 min post dose | Onset, Min ([2]; 400 μg inhaled, grade 3 and 4 responders, hydrochloride): 3 min post dose | Duration ([2]; 800 μg inhaled): 6 min | Duration, Max ([2]; 800 μg inhaled): 54 min | Duration, Median ([2]; 800 μg inhaled): 36 min | Onset of an erection in one patient ([2]; 800 μg inhaled, FIG. 14): about 4 minutes | Number of patients with quality grade 1, Some tumescence, no rigidity ([2]; 800 μg inhaled): 3 | Number of patients with quality grade 2, Some tumescence and rigidity ([2]; 800 μg inhaled): 7 | Number of patients with quality grade 3, Partial erection ([2]; 800 μg inhaled): 6 | Number of patients with quality grade 4, Full erection ([2]; 800 μg inhaled): 14 | Responding (subjects with grade 3 or 4 erection) ([2]; 800 μg inhaled, 34 evaluated): 20 | Effective? ([2]; 800 μg inhaled, listed as apomorphine HCL, hydrochloride): effective | Effective? [2, 11]: effective and Yes | Response rate [2, 11]: 58.8% | Duration, Mean ([2]; 800 μg inhaled, N 19): 31.2 min | Onset, Max ([2]; 800 μg inhaled, grade 3 and 4 responders): 17 min post dose | Onset, Mean ([2]; 800 μg inhaled, grade 3 and 4 responders, N 19): 10 min post dose | Onset, Min ([2]; 800 μg inhaled, grade 3 and 4 responders, hydrochloride): 3 min post dose | Lowest inhaled dose at which the clinical effect is observed ([2]; pulmonary inhalation): 400 µg | AUC0-∞ ([3]; 600 μg single inhaled dose, mean ± standard error): 176.4 ± 26.9 ng·min/mL | Tmax ([3]; 900 μg single inhaled dose, hydrochloride): 1 min | Tmax ([3]; 1200 μg single inhaled dose, hydrochloride): 1 min | Dose proportionality for Cmax, AUC0-∞ and AUC0-t ([3]; 600, 900, 1200 μg inhaled): demonstrated | AUC(0-inf) ([3]; male, human, plasma, inhaled or intranasal, 600 ug, 600 μg inhaled, comparison table with Uprima): 2.2 ng·h/mL | Cmax [3, 12]: 3.5 to 4.9 ng/mL | AUC(0-t) [3, 12]: 2.23 ng·h/mL | Tmax ([3]; male, human, plasma, inhaled or intranasal, 600 ug, 600 μg single inhaled dose, read-out: tmax (converted)): 3 min | AUC(0-inf) ([3]; male, human, plasma, inhaled or intranasal, 900 ug, 900 μg inhaled, comparison table with Uprima): 3.4 ng·h/mL | Cmax [3, 13]: 7.4 to 8.8 ng/mL | AUC(0-inf) [3, 13]: 3.84 ng·h/mL | AUC(0-t) [3, 13]: 3.42 ng·h/mL | Tmax ([3]; male, human, plasma, inhaled or intranasal, 900 ug, 900 μg single inhaled dose, read-out: tmax (converted)): 1 min | AUC(0-inf) ([3]; male, human, plasma, inhaled or intranasal, 1200 ug, 1200 μg inhaled, comparison table with Uprima): 5.5 ng·h/mL | Cmax [3, 14]: 9.2 to 16.2 ng/mL | AUC(0-inf) [3, 14]: 5.5 ng·h/mL | AUC(0-t) [3, 14]: 4.93 ng·h/mL | Tmax ([3]; male, human, plasma, inhaled or intranasal, 1200 ug, 1200 μg single inhaled dose, read-out: tmax (converted)): 1 min | Dose that can be administered without causing unacceptable side effects [4]: more than 2 mg | Treatment-related AE: Cough, % ([5]; 200 μg inhaled): 3% | Treatment-related AE: Dizziness, % ([5]; 200 μg inhaled): 3% | Treatment-related AE: Nasal congestion, % ([5]; 200 μg inhaled): 3% | Treatment-related AE: Nervous system disorders, % ([5]; 200 μg inhaled): 3% | Treatment-related AE: Respiratory, thoracic & mediastinal disorders, % ([5]; 200 μg inhaled): 3% | Treatment-related AE: Sneezing, % ([5]; 200 μg inhaled): 3% | Treatment-related adverse events: subjects with AE, % ([5]; 200 μg inhaled): 6% | All adverse events: subjects with AE, % ([5]; 200 μg inhaled): 9% | Treatment-related AE: Dry throat, % ([5]; 400 μg inhaled): 3% | Treatment-related AE: Pharyngolaryngeal pain, % ([5]; 400 μg inhaled): 6% | Treatment-related AE: Respiratory, thoracic & mediastinal disorders, % ([5]; 400 μg inhaled): 9% | Treatment-related adverse events: subjects with AE, % ([5]; 400 μg inhaled): 9% | All adverse events: subjects with AE, % ([5]; 400 μg inhaled): 9% | Treatment-related AE: Dizziness, % ([5]; 800 μg inhaled): 6% | Treatment-related AE: Gastrointestinal disorders, % ([5]; 800 μg inhaled): 3% | Treatment-related AE: Nausea, % ([5]; 800 μg inhaled): 3% | Treatment-related AE: Nervous system disorders, % ([5]; 800 μg inhaled): 6% | Treatment-related adverse events: subjects with AE, % ([5]; 800 μg inhaled): 6% | All adverse events: subjects with AE, % ([5]; 800 μg inhaled, hydrochloride): 6% | concentration at 70 min ([6]; 400 μg, 400 μg inhaled, read-out: Blood level 70 minutes after dosing, Mean): 0.215 ng/mL | concentration at 70 min ([6]; 400 μg, 400 μg inhaled, read-out: Blood level 70 minutes after dosing, Median): 0.217 ng/mL | concentration at 70 min ([6]; 800 μg, 800 μg inhaled, read-out: Blood level 70 minutes after dosing, Mean): 0.608 ng/mL | concentration at 70 min ([6]; 800 μg, 800 μg inhaled, read-out: Blood level 70 minutes after dosing, Median): 0.567 ng/mL | Ethanol required for suitable or acceptable solubility ([7]; HFA propellant solution pMDI systems): at least 50% | Solution concentration achieved ([7]; HFA propellant system with at least 50% ethanol): < 25 μg/dose
